Assay results: patent US11141488B2, “Compositions comprising biodegradable copolymers for prolonged local release of an antibiotic” (DEXCEL PHARMA TECHNOLOGIES LTD., priority 2017, dated 2021)
Read-outs that look alike come from different tables or passages of the source.

What was measured:
[1] = Local and systemic gentamicin levels after single intramuscular injection in rabbits; assay type: in vivo, New Zealand White (NZW) rabbits; settings: rabbit muscle
Description: Prior to injection, a skin incision was made in order to expose the muscle. The site of injection was marked by a non-absorbable suture at the upper layer of the muscle. […] Following injection, the skin was closed using surgical clips. The procedure was performed under general anesthesia. Animals were clinically observed for up to 8 weeks post-dosing, if applicable.
Tissue collection was performed by resecting the right paravertebral muscle, transversally slicing into ˜1 cm thick serial sections (total of 7 serial sections), when the injection site was located at the core center of the central section. […] At the injection site, one sample ( ? ) was taken.

[2] = rat skin tissue
Description: The site of injection was located at the right mid trunk area close to the spinal cord of the animals. The fur covering the flank and dorsal areas was removed by close clipping using an electric clipper up to 96 hours prior to dosing. Injections were performed using 18-19 G needle. The procedure was performed under general anesthesia. Blood samples were collected at 15 minutes, 30 minutes, 45 minutes, 1 hour, 1.5 hours, 2 hours, 4 hours, 6 hours, 8 hours, 24 hours, 48 hours, 72 hours, 1 week, 2 weeks, 3 weeks, 4 weeks, 6 weeks, and 8 weeks.
Blood samples were processed by centrifugation (3,000 G for 15 minutes at room temperature). Following centrifugation, plasma was removed into plastic tubes, followed by freezing using liquid nitrogen to (−70)-(−80)° C. for subsequent analysis.
Tissue collection was performed following removal of the dorsal trunk area by close clipping using an electrical clipper, if needed. The skin at the dorsal site of the animal was removed and pinned to a cork board. […] The injection site A is marked by a circular area of 1 cm in diameter (1×0.8 cm diameter sample). Circular strips B, C, and D each indicate 0.5 cm strips in width encircling circle (at least 4 samples were taken from each strip).
Thereafter, the samples were injected into a LC-MS/MS system (3 μl for samples at a concentration range of 2.5-170 μg/ml and 20 μl for samples at a concentration range of 0.075-2.5 μg/ml). […] Thereafter, 20 μl of the samples were injected into a LC-MS/MS system.
Sample concentrations were obtained by interpolation from the run defined calibration curve. The raw data was processed using AB SCIEX 1.5.1 software.

[3] = parenteral administration, levels exceeded for prolonged periods of time; cited from earlier work

## gentamicin
[1]; area B of FIG. 4, 24 hours after single 0.2 ml IM injection of RA:SA (70:30) copolymer with 20 wt % gentamicin sulfate
  local concentration of gentamicin, area B: 46 µg/mL
[1]; area C of FIG. 4, 24 hours after single 0.2 ml IM injection of RA:SA (70:30) copolymer with 20 wt % gentamicin sulfate
  local concentration of gentamicin, area C: 3 µg/mL
[1]; area D of FIG. 4, 24 hours after single 0.2 ml IM injection of RA:SA (70:30) copolymer with 20 wt % gentamicin sulfate
  local concentration of gentamicin, area D: 6 µg/mL
[1]; injection site, 24 hours after single 0.2 ml IM injection of RA:SA (70:30) copolymer with 20 wt % gentamicin sulfate
  local concentration of gentamicin, area A: 765 µg/mL
[2]; injection site, 24 hours after single 0.2 ml SC injection of RA:SA (70:30) copolymer with 20 wt % gentamicin sulfate
  local concentration of gentamicin, area A: 362 µg/mL
[2]; strip B of FIG. 8, 24 hours after single 0.2 ml SC injection of RA:SA (70:30) copolymer with 20 wt % gentamicin sulfate
  local concentration of gentamicin, area B: 218 µg/mL
[2]; strip C of FIG. 8, 24 hours after single 0.2 ml SC injection of RA:SA (70:30) copolymer with 20 wt % gentamicin sulfate
  local concentration of gentamicin, area C: 43 µg/mL
[2]; strip D of FIG. 8, 24 hours after single 0.2 ml SC injection of RA:SA (70:30) copolymer with 20 wt % gentamicin sulfate
  local concentration of gentamicin, area D: 31 µg/mL
[3]
  systemic levels above which ototoxicity and nephrotoxicity are induced: 10 to 12 µg/mL
